US20250270202A1, “SUBSTITUTED 4-AMINOISOINDOLINE COMPOUND, PREPARATION METHOD THEREFOR, PHARMACEUTICAL COMPOSITION THEREOF, AND USE THEREOF” (SHANGHAI INSTITUTE OF MATERIA MEDICA, CHINESE ACADEMY OF …, priority 2022, published 2025)
Read-outs that look alike come from different tables or passages of the source.

Assays:
Type in all cases: cell-based
MV-4-11 cells = experiment: Inhibition of MV-4-11 cell proliferation (MTS, 7 days); conditions: Homo sapiens
Procedure: MV-4-11 cells were cultured in IMDM with 10% fetal bovine serum, collected, and diluted to the appropriate cell concentration for a 7-day treatment period. A 96-well plate was used, and 180 μL of cell suspension was added to each well, resulting in a cell count of 2,000 per well. For the control wells, 20 μL of DMSO at a final concentration of 0.2% was added. The compounds were diluted from a 10 mM stock solution in a five-fold gradient, and 20 μL was added to the compound wells (with a final DMSO concentration of 0.2%). The cells were incubated in a 37° C., 5% CO2 incubator for 7 days. After preparing the reaction solution using the MTS reagent kit (Promega, G5430), 20 μL was added to each well, and the cells were incubated in the incubator for 3-4 hours. The absorbance at 490 nm was measured using a microplate reader, with the absorbance at 690 nm as the background value. The final data was calculated as OD490-OD690. The inhibition rate of the compounds was calculated using the formula: […]
The IC50 values for proliferation inhibition were calculated using GraphPad Prism 5.0. The experiments were repeated three times, with three parallel experiments for each, and the mean and standard deviation were calculated.
The cell activity test results are shown in Table 3: A indicates IC50<1 μM, B indicates 1 µM≤IC50≤20 μM, and C indicates IC50>20 μM.

Mino cells = experiment: Inhibition of cell proliferation of Mino cells (MTS, 3 days); conditions: Homo sapiens, MINO
Procedure: Mino cells were cultured with RPMI-1640 medium supplemented with 15% fetal bovine serum, and collected. The cell concentration was diluted according to a 3-day treatment period, and 90 μL of the cell suspension was added to each well of a 96-well plate, resulting in 8000 cells per well. For control wells, 10 μL of DMSO at a final concentration of 0.2% was added. The compounds were diluted in a 5-fold gradient from a 10 mM stock solution, and 10 μL of each compound solution was added to the experimental wells (with a final DMSO concentration of 0.2%). The cells were incubated in a 37° C., 5% CO2 incubator for 3 days. After preparing the reaction mixture using the MTS reagent kit (Promega, G5430), 20 μL was added to each well, and the cells were incubated for 3-4 hours at 37° C., 5% CO2.
The absorbance at 490 nm was read using a microplate reader, with the absorbance at 690 nm used as the background. The final raw data was calculated as OD490-OD690. The inhibition rate of the compounds was calculated using the formula: Inhibition rate=(OD DMSO−OD compound)/(OD DMSO−OD blank)×100%. The IC50 values for cell proliferation inhibition of the compounds were fitted using GraphPad Prism 5.0. The experiment was repeated three times, with the average and standard deviation calculated from three parallel experiments each time.

MM.1S cells = experiment: Effect of the compound on MM.1S cell proliferation (MTS, 7 days); conditions: Homo sapiens, MM1.S
Procedure: MM.1S cells were cultured in 1640 medium supplemented with 10% fetal bovine serum, then collected and diluted to the desired cell concentration after 7 days of treatment. A total of 180 μL of cell suspension was added to each well in a 96-well cell plate, ensuring 20,000 cells per well. For the control group, 20 μL of 0.2% DMSO was added to each well. Compounds were diluted in a 5-step gradient from a 10 mM stock solution, and 20 μL of each dilution was added to the compound-containing wells (with a final DMSO concentration of 0.2%). The cells were incubated in a 37° C., 5% CO2 incubator for 7 days. Afterward, 20 μL of the MTS reagent (Promega, G5430) was added to each well, followed by incubation for 3-4 hours in a 37° C., 5% CO2 incubator. Absorbance at 490 nm was measured using a microplate reader, with 690 nm absorbance as the background. The final raw data was calculated as OD490-OD690. The compound inhibition rate was calculated using the formula: […]
The IC50 for the compound's proliferative inhibition was fitted using GraphPad Prism 5.0. The experiment was repeated three times, and the average and standard deviation were calculated using three parallel experiments per trial.

[1] = MV4-11, 168 h, 7 days, MTS, Table 3, read-out: MV-4-11 Cells Inhibition Activity IC50
[2] = 72 h, 3 days, MTS, Table 2, read-out: Mino Cells Inhibition Activity IC50
[3] = 168 h, 7 days, MTS, Table 1, read-out: MM.1S Cells Inhibition Activity IC50

## O=C1CCC(N2C(=O)c3cccc(NCc4cnc(C5CCN(Cc6ccc(OC(F)(F)F)cc6)CC5)o4)c3C2=O)C(=O)N1 (stereo not shown) [Example 14]
MV-4-11 cells; [1]
  IC50: < 1000 nM
Mino cells; [2]
  IC50: 60 to 120 nM
MM.1S cells; [3]
  IC50: 15 to 30 nM

## O=C1CCC(N2C(=O)c3cccc(NCc4cnc(-c5ccc(OC(F)(F)F)cc5)o4)c3C2=O)C(=O)N1 (stereo not shown) [Example 15]
MV-4-11 cells; [1]
  IC50: < 1000 nM
MV-4-11 cells; MV4-11, Table 4, values in nM, read-out: Inhibitory Activity of Compounds on Cell Proliferation MV-4-11 IC50
  IC50: 750 nM
Mino cells; [2]
  IC50: 60 to 120 nM
Mino cells; Table 4, read-out: Inhibitory Activity of Compounds on Cell Proliferation Mino IC50
  IC50: 60.5 nM
MM.1S cells; [3]
  IC50: < 15 nM
MM.1S cells; Table 4, read-out: Inhibitory Activity of Compounds on Cell Proliferation MM.1S IC50
  IC50: 6.4 nM

## COc1ccc(-c2ncc(CNc3cccc4c3C(=O)N(C3CCC(=O)NC3=O)C4=O)o2)cc1 (stereo not shown) [Example 16]
MV-4-11 cells; [1]
  IC50: < 1000 nM
Mino cells; [2]
  IC50: < 60 nM
MM.1S cells; [3]
  IC50: < 15 nM

## COc1cccc(-c2ncc(CNc3cccc4c3C(=O)N(C3CCC(=O)NC3=O)C4=O)o2)c1 (stereo not shown) [Example 17]
MV-4-11 cells; [1]
  IC50: 1000 to 20000 nM
Mino cells; [2]
  IC50: 60 to 120 nM
MM.1S cells; [3]
  IC50: < 15 nM

## O=C1CCC(N2C(=O)c3cccc(NCc4cnc(-c5cccc(-c6ccccc6)c5)o4)c3C2=O)C(=O)N1 (stereo not shown) [Example 18]
MV-4-11 cells; [1]
  IC50: < 1000 nM
Mino cells; [2]
  IC50: < 60 nM
MM.1S cells; [3]
  IC50: < 15 nM

## Cc1ccc(-c2ncc(CNc3cccc4c3C(=O)N(C3CCC(=O)NC3=O)C4=O)o2)cc1 (stereo not shown) [Example 19]
MV-4-11 cells; [1]
  IC50: < 1000 nM
Mino cells; [2]
  IC50: < 60 nM
MM.1S cells; [3]
  IC50: < 15 nM

## Cc1cccc(-c2ncc(CNc3cccc4c3C(=O)N(C3CCC(=O)NC3=O)C4=O)o2)c1 (stereo not shown) [Example 20]
MV-4-11 cells; [1]
  IC50: < 1000 nM
Mino cells; [2]
  IC50: < 60 nM
MM.1S cells; [3]
  IC50: < 15 nM

## Cc1ccccc1-c1ncc(CNc2cccc3c2C(=O)N(C2CCC(=O)NC2=O)C3=O)o1 (stereo not shown) [Example 21]
MV-4-11 cells; [1]
  IC50: 1000 to 20000 nM
Mino cells; [2]
  IC50: > 120 nM
MM.1S cells; [3]
  IC50: < 15 nM

## O=C1CCC(N2C(=O)c3cccc(NCc4cnc(-c5ccc(Br)cc5)o4)c3C2=O)C(=O)N1 (stereo not shown) [Example 23]
MV-4-11 cells; [1]
  IC50: < 1000 nM
Mino cells; [2]
  IC50: > 120 nM
MM.1S cells; [3]
  IC50: < 15 nM

## O=C1CCC(N2C(=O)c3cccc(NCc4cnc(-c5cccc(OC(F)(F)F)c5)o4)c3C2=O)C(=O)N1 (stereo not shown) [Example 55]
MV-4-11 cells; [1]
  IC50: < 1000 nM
MM.1S cells; [3]
  IC50: 15 to 30 nM

## O=C1CCC(N2C(=O)c3cccc(NCc4cnc(-c5ccccc5OC(F)(F)F)o4)c3C2=O)C(=O)N1 (stereo not shown) [Example 56]
MV-4-11 cells; [1]
  IC50: 1000 to 20000 nM
MM.1S cells; [3]
  IC50: 30 to 150 nM

## O=C1CCC(N2C(=O)c3cccc(NCc4cnc(-c5cccc(Cl)c5)s4)c3C2=O)C(=O)N1 (stereo not shown) [Example 68, 4-(((2-(3-Chlorophenyl)thiazol-5-yl)methyl)amino)-2-(2,6-Dioxopiperidin-3-yl)isoindolin-1,3-dione]
MV-4-11 cells; [1]
  IC50: < 1000 nM
Mino cells; [2]
  IC50: > 120 nM

## O=C1CCC(N2C(=O)c3cccc(NCc4cnc(-c5cccc(F)c5)o4)c3C2=O)C(=O)N1 (stereo not shown) [Example 70, 2-(2,6-Dioxopiperidin-3-yl)-4-(((2-(3-Fluorophenyl)oxazol-5-yl)methyl)amino)isoindolin-1,3-dione]
MV-4-11 cells; [1]
  IC50: 1000 to 20000 nM
MM.1S cells; [3]
  IC50: 15 to 30 nM

## O=C1CCC(N2C(=O)c3cccc(NCc4cnc(-c5cc(Cl)cc(Cl)c5)o4)c3C2=O)C(=O)N1 (stereo not shown) [Example 75, 4-(((2-(3,5-Dichlorophenyl)oxazol-5-yl)methyl)amino)-2-(2,6-Dioxopiperidin-3-yl)isoindolin-1,3-dione]
MV-4-11 cells; [1]
  IC50: < 1000 nM
Mino cells; [2]
  IC50: > 120 nM

## O=C1CCC(N2C(=O)c3cccc(NCc4cnc(-c5ccccc5OC5COC5)o4)c3C2=O)C(=O)N1 (stereo not shown) [Example 101]
MV-4-11 cells; [1]
  IC50: 1000 to 20000 nM

## O=C1CCC(N2C(=O)c3cccc(NCc4cnc(-c5ccc(OC6COC6)cc5)s4)c3C2=O)C(=O)N1 (stereo not shown) [Example 102]
MV-4-11 cells; [1]
  IC50: 1000 to 20000 nM
MM.1S cells; [3]
  IC50: 30 to 150 nM
